Assay results: PubChem BioAssay (NCI)
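These data come from cells grown in 96-well plates and exposed to compound for 48 hours at five concentrations. GI50 marks 50% less growth. TGI: concentration producing complete growth inhibition.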

Experiments:
Experiment in all cases: NCI anticancer screen, dose series, 48 h
NCI-H522 lung = system: NCI-H522 lung
SW-620 colon = system: SW-620 colon
HT29 colon = system: HT29 colon
CCRF-CEM leukemia = system: CCRF-CEM leukemia
SF-268 CNS = system: SF-268 CNS
SK-MEL-28 melanoma = system: SK-MEL-28 melanoma
MALME-3M melanoma = system: MALME-3M melanoma
UACC-62 melanoma = system: UACC-62 melanoma
U251 CNS = system: U251 CNS
NCI-H460 lung = system: NCI-H460 lung

Compound	GI50 (NCI-H522 lung) [µM]	TGI (NCI-H522 lung) [µM]	GI50 (SW-620 colon) [µM]	TGI (SW-620 colon) [µM]	GI50 (HT29 colon) [µM]	TGI (HT29 colon) [µM]	GI50 (CCRF-CEM leukemia) [µM]	TGI (CCRF-CEM leukemia) [µM]	GI50 (SF-268 CNS) [µM]	TGI (SF-268 CNS) [µM]	GI50 (SK-MEL-28 melanoma) [µM]	TGI (SK-MEL-28 melanoma) [µM]	GI50 (MALME-3M melanoma) [µM]	TGI (MALME-3M melanoma) [µM]	GI50 (UACC-62 melanoma) [µM]	TGI (UACC-62 melanoma) [µM]	GI50 (U251 CNS) [µM]	TGI (U251 CNS) [µM]	GI50 (NCI-H460 lung) [µM]	TGI (NCI-H460 lung) [µM]
COc1ccc(-c2n[nH]nc2-c2csc3ccccc23)cc1OC	0.601	2.81	3.09	43.9	2.78	10.6	3.29	32.9	3.69	41.8	4.63	48.5	13.3	62.1	2.77	22.2	2.19	11.4	3.56	18.9
CC(=O)OC1CCn2nnc(COC(=O)NC(C)C)c21 (stereo not drawn)	–	> 100	–	> 100	–	> 100	–	–	–	–	–	> 100	–	> 100	–	> 100	–	> 100	–	> 100
O=C(Nc1cc(C(F)(F)F)ccc1F)Nc1n[nH]c2ccccc12	> 100	> 100	> 100	> 100	> 100	> 100	–	–	> 100	> 100	> 100	> 100	> 100	> 100	> 100	> 100	> 100	> 100	> 100	> 100
C=CC1CC12C(=O)C1OC2(C)C2C(=O)c3c(ccc4c3ccc3ccccc34)C(=O)C12 (stereo not drawn)	> 100	> 100	–	–	91.6	> 100	17.1	> 100	36.2	> 100	65.3	> 100	16.8	> 100	–	–	26.7	87.6	37.1	> 100
COc1ccc2c(c1)CC[C@@H]1[C@@H]2CC[C@@]2(C)[C@H]1CC1(CCCCC1)[C@@H]2O	17.9	36.6	–	–	1.81	4.39	–	–	12	26.6	14.9	29.5	18.8	36.3	16.4	31.6	10	24.4	3.82	15.4
COc1cc(/C=C/C(C)=O)ccc1OP(=O)(O)O	–	> 100	–	> 100	–	> 100	–	–	–	> 100	–	> 100	–	> 100	–	> 100	–	> 100	–	> 100
O=C(CCC(=O)Nc1ccc(Cl)cc1)CC(=O)c1ccc(F)cc1	–	> 100	–	> 100	–	> 100	–	–	–	> 100	–	> 100	–	> 100	–	> 100	–	–	–	> 100
CCN(CC)CCOc1ccc(/C=C2\CC3C4CCC5=CC(=O)CC[C@]5(C)C4CC[C@]3(C)C2=O)cc1OC (stereo partly drawn)	7.15	> 100	2.98	13.4	1.3	> 100	–	–	2.34	5.62	2.29	5.67	1.5	2.95	2.01	4.13	2.57	8.39	2.85	11.2
O=c1ccccc2cccc(O)c12	–	–	–	> 100	–	> 100	–	> 100	–	–	–	> 100	–	–	–	> 100	–	> 100	–	> 100
Brc1ccc([I+]c2ccc(Br)cc2)cc1	1.28	3.18	0.992	4.31	0.535	3.16	–	–	1.03	2.4	1.43	3.79	1.38	12.3	2.87	17.5	1.32	2.65	0.866	4.23
CCC[CH2][Sn]([CH2]CCC)([O]C(=O)c1cccc(F)c1)[O]C(=O)c1cccc(F)c1	0.246	0.91	–	–	1.73	3.38	0.239	0.832	1.16	2.53	0.703	2.02	0.907	2.25	0.719	2.09	1.05	2.26	2.08	5.38
O=C(O)/C(=C/c1ccccc1[N+](=O)[O-])c1ccccc1	–	> 100	–	> 100	–	> 100	–	–	–	> 100	–	> 100	–	–	–	> 100	–	> 100	–	> 100
CCOc1ccccc1/C=C1\NC(=O)N(/C=C2\C(=O)Oc3ccccc3C2=O)C1=O	–	> 100	–	> 100	–	> 100	–	59.1	–	> 100	–	> 100	–	–	–	> 100	–	> 100	–	> 100
CCCNCc1nc2ccc(Br)cc2c(=O)n1CCC	–	26.8	–	28.3	–	29.9	–	36.3	–	26.9	–	29	–	26.4	–	19.8	–	26.3	–	–
N=C(N)SCCc1cn2ccccc2n1	–	> 100	–	> 100	–	> 100	–	> 100	–	> 100	–	> 100	–	> 100	–	–	–	> 100	–	> 100
Cc1ccccc1C(=O)Oc1ccc(Oc2ccccc2)cc1	–	–	–	> 100	–	> 100	–	> 100	–	> 100	–	–	–	> 100	–	> 100	–	> 100	–	> 100
Nc1ccc(Nc2nc(F)nc(-c3c4ccccc4c4n3CCS4)n2)cc1	–	28.6	–	27.9	–	–	–	62.2	–	37.1	–	33.3	–	31.6	–	–	–	31	–	–
N=C(c1ccccc1)N(O)C1CCCCC1	–	> 100	–	> 100	–	> 100	–	–	–	> 100	–	> 100	–	> 100	–	–	–	> 100	–	> 100
O=C(Nc1c(-c2nc3ccccc3[nH]2)sc(=S)n1-c1ccccc1)c1ccccc1	–	> 100	–	> 100	–	> 100	–	> 100	–	> 100	–	> 100	–	> 100	–	> 100	–	> 100	–	–
CN(C)CCNc1ccc([N+](=O)[O-])c2nc3ccccc3c(N)c12	–	–	–	3.74	–	3.07	–	> 10	–	3.94	–	> 10	–	3.12	–	3.54	–	> 10	–	1.66
CCCCC(=O)N/N=C/c1cc(I)cc(I)c1O	2.91	17.5	3.91	> 100	8.46	29.4	1.23	12.5	2.15	21.6	2.85	17.3	–	–	2.24	8.33	1.99	16.1	2.25	15.5
COc1cc2c(c(OC)c1OC)-c1[nH]ncc1CC2	–	–	–	> 100	–	> 100	–	> 100	–	> 100	–	> 100	–	> 100	–	> 100	–	> 100	–	> 100
CC(C)C(=O)N[C@@H](C)C(=O)N(Cc1ccc2ccccc2c1)N=O	–	–	–	> 100	–	> 100	–	> 100	–	> 100	–	> 100	–	> 100	–	> 100	–	> 100	–	> 100
O=C(N/N=C1\CCc2ccccc2C1)N/N=C1\CCc2ccccc2C1	–	> 10	–	> 10	–	> 10	–	> 10	–	> 10	–	–	–	> 10	–	–	–	> 10	–	> 10
O=S1(=O)CCN(Cc2ccccn2)CC1	–	> 100	–	> 100	–	> 100	–	–	–	> 100	–	> 100	–	> 100	–	> 100	–	> 100	–	> 100
Nc1cc(-c2ccccc2)ccc1O	–	–	> 100	> 100	> 100	> 100	23.2	> 100	65.5	> 100	> 100	> 100	> 100	> 100	37.3	> 100	> 100	> 100	> 100	> 100
C(=C\c1csnn1)/c1cccnc1	–	> 100	–	> 100	–	> 100	–	–	–	> 100	–	> 100	–	> 100	–	–	–	> 100	–	> 100
COC(=O)C1=Nc2c(C)nn(-c3ccccc3)c2N=C(c2ccc(C)cc2)C1	–	> 10	–	> 10	–	> 10	–	–	–	> 10	–	> 10	–	> 10	–	> 10	–	> 10	–	–
COC(=O)c1ccccc1NC(=O)/C(=N\NC(C)(C)C)C(C#N)c1nc(-c2ccc([N+](=O)[O-])cc2)cs1 (stereo not drawn)	–	–	–	> 100	–	> 100	–	> 100	–	> 100	–	> 100	–	> 100	–	> 100	–	> 100	–	> 100
